# Measured values from patent US20250049927A1, “MODIFIED OLIGONUCLEOTIDE-DRUG CONJUGATE AND USE THEREOF” (INTEROLIGO CORPORATION., priority 2021, published 2025).
# pIC50: −log10 of the molar value. Non-standard residues stand in square brackets, D forms with d. Residues, ends and D or L forms follow the SMILES beside them. *: point of attachment. Dolaproine = CO[C@@H]([C@@H]1CCCN1)[C@@H](C)C(=O)O; Dil = CC[C@H](C)[C@H](NC)[C@@H](CC(=O)O)OC; X1 = C[C@@H](N*)[C@@H](O)c1ccccc1; NMeV = CN[C@H](C(=O)O)C(C)C
# Key:
# [1] = tested on: BxPC-3-Luc orthotopic pancreatic cancer; assay: Orthotopic pancreatic cancer animal model, patch-type collagen drug delivery system inserted at tumor site; type: in vivo, BALB/c-nude male mice; settings: 2.0 mg-loading collagen patch; for IVIS whole body image: change in luminescence / dead mice: inserted once; for IVIS whole body image: change in luminescence: 4 weeks; for dead mice: 28 days
# Excerpt: To deliver the modified oligonucleotide-drug conjugates to an animal model, high-purity collagen (COLTRIX® Tendoregen, Ubiosis Co., Ltd.) dispersion (1.0%) and samples (e.g., modified oligonucleotide-drug conjugates, gemcitabine, etc.) to be tested were mixed, poured into a circular silicone mold having a diameter of 1 cm, and lyophilized to prepare a “patch-type collagen drug delivery system” in which the samples were loaded in the collagen. Amounts of the samples loaded per patch-type collagen drug delivery system are as shown in Table 3 below (in Table 3, SEQ ID NO: 16 is 5′-(Gem)(Gem)[TGG]4[TTG][TGG]5-3′, wherein Gem-Gemcitabine).
# Specifically, each of sample (gemcitabine, IO101L (SEQ ID NO: 16) and modified oligonucleotide-drug conjugates (Example 5 and Example 9) to be tested was added to the high-purity collagen, and then uniformly mixed using a multi-mixer (SLRM-3, MYLAB) at 4° C. for 1 hour. Thereafter, a predetermined amount of the collagen-drug mixture was dispensed into a cylindrical silicone mold having a diameter of 1 cm and the collagen-drug mixture was primary frozen at −20° C. for 4 hours or more. After the first freezing was completed, the sample was separated from the cylindrical silicone mold and transferred to a sterile dish or plate, and then secondary frozen at −80° C. for 2 hours or more. After preliminary freezing so that the cold trap temperature of a lyophilizer was-80° C., the mixture was placed in the lyophilizer and lyophilized for more than 16 hours. The lyophilized mixture was compressed in the form of a patch using an acrylic plate, then was put into an aluminum pouch and sealed. The packaged patch-type collagen drug delivery system was refrigerated at 4° C.
# The frozen cancer cell line (BxPC-3-Luc) (Asan Institute for Life Sciences) was thawed, and then cultured in an RPMI1640 medium (Biowest, Cat #. L0498-100) in which 10% fetal bovine serum (Biowest, Cat #. S1480) and 1% antibiotic (Gibco, Cat #. 15240062) were supplied at 37° C. under 5% CO2 condition. The thawed cells were cultured for one week to confirm that there were no problems with the shape, survival rate, and doubling time.
# Cancer cells having a cell survival rate of 95% or more were prepared in order to transplant them into mice. The cells were harvested using trypsin, and prepared so as to transplant them into 5×10^5 cells/25 μl/mouse by being turbid in RPMI 1640 media. 6-week old BALB/c-nude male mice stabilized for 1 week (purchased from Jabio, Korea) were subjected to abdominal anesthesia, and the pancreas was taken out by dissecting the abdominal region of each anesthetized mouse and cells of 5×10^5 cells/25 μl were transplanted. After 2 weeks, tumor formation was confirmed through luciferase imaging. […] The patch-type collagen drug delivery system prepared in the above (1) was inserted (intra-abdominal cavity insertion using surgery) into the tumor site of each mouse in the respective groups. All animal experiments included in the present test were performed according to the Institutional Animal Care and Use Committee (IACUC) of the Asan Institute for Life Sciences [2022-14-058].
# After inserting the patch-type collagen drug delivery system, changes in the tumor size were observed using IVIS imaging equipment (Xenogen IVIS spectrum system; Caliper Life Science, Inc., Hopkinton, MA) at an interval of 3 times a week for 4 weeks to check the body weight. […]
# [2] = tested on: BxPC-3 pancreatic cancer cell lines; assay: Pancreatic cancer cell growth inhibition, WST assay; type: cell-based; settings: BxPC-3, 72 hours treatment, absorbance 450 nm
# Procedure: The in vitro anticancer efficacy of the modified oligonucleotide-drug conjugates was verified using pancreatic cancer cell lines. Pancreatic cancer cell lines (BxPC-3) were treated with the above-described examples and comparative examples at concentrations of 0, 0.01, 0.1, 1, 10, 100, 500 and 1000 μM, and the specific IC50 measurement method and measurement results are as follows.
# All cell lines were cultured in a 5% CO2 incubator at 37° C. The BxPC-3 pancreatic cancer cell lines were cultured using a medium containing 10% FBS and 1% antibiotics put into ATCC modified RPMI-1640 (Thermo Scientific, USA). The medium was replaced once every 2-3 days, and passage-cultured at a time when about 70-90% of a culture dish was filled with the cells. First, the cells were washed with PBS, then 0.05% Trypsin-EDTA was added and cultured at 37° C. for 2 minutes, and then a new medium was added to inactivate trypsin. The cells were separated from trypsin and medium using a centrifuge, then another new medium was added and passaged at a ratio of 1:4, followed by culturing the same. All cells were periodically checked for contamination by mycoplasma using a kit (Intron, Korea), and in vitro efficacy evaluation experiments were conducted using only cells in which contamination was not detected.
# Using WST reagent (Dongin LS, Korea), an inhibitory effect on pancreatic cancer cell growth by drug treatment was confirmed and IC50 was measured. An orange coloring substance called formazan is produced in WST by mitochondrial dehydrogenase within cells, which is effective only in living cells. The specific test method is as follows.
# The cells cultured by the above-described method were dispensed by 2×10^4 into each well of a 96-well culture vessel and cultured for 24 hours. The medium of the cells attached to the culture vessel was replaced with an ATCC modified RPMI-1640 medium containing 5% FBS, and samples of the above-described modified oligonucleotide-drug conjugates (Examples 1-7 and 9-12, and Comparative Example 1-7, respectively) were treated at concentrations of 0, 0.01, 0.1, 1, 10, 100, 500 and 1000 μM. After 72 hours, 10 μl of WST reagent was added to each well and reacted for 2 hours. The produced formazan was measured with an absorbance at 450 nm using a Glomax plate meter (Promega, USA), and IC50 was evaluated according to the protocol in the device. IC50 evaluation results and graphs illustrating the same are shown in Table 2 below and FIGS. 19 to 27 (in Table 2, M=Gemcitabine, and N=5-FdU).
# [3] = Pharmacokinetic evaluation in rats: plasma MMAE by LC-MS/MS; type: in vivo, Sprague-Dawley male rats; settings: rat, MMAE 4 mg/kg alone intravenous
# Procedure: After pretreating samples by protein precipitation, plasma concentration of MMAE was analyzed using liquid chromatography-tandem mass spectrometry (hereinafter referred to as LC-MS/MS) established in the Pharmacology/Pharmacokinetics Laboratory of the Catholic University College of Pharmacy. All analysis processes were conducted under light-shielding conditions.
# […] standard products were dissolved in acetonitrile to prepare a 1 mg/mL of storage solution and store it frozen.
# [4] = tested on: Sprague-Dawley male rats; assay: Death of rats after intravenous administration in the pharmacokinetic study; type: in vivo; settings: MMAE 4 mg/kg intravenous
# Procedure: Specifically, Sprague-Dawley male rats (8 weeks old, purchased from Youngbio) were acclimatized for 1 week in the animal room of the Catholic University Songsim Campus, and then pharmacokinetic experiments were performed. Rats were induced with isoflurane, an inhalation anesthetic, and PE50 (polyethylene tubing, Clay Adams, Becton Dickinson, NJ, USA) was inserted into the carotid (for blood collection) and jugular vein (for drug administration), followed by suturing with suture, and then end portions thereof were fixed to the back of the neck. During the surgery, anesthesia was maintained using ether, and about 0.5 mL of physiological saline solution containing heparin (20 units/mL) was injected to prevent blood from coagulating in the cannula. After completing the surgery, each rat was placed in a metabolic cage and allowed to fully recover from the anesthetic (for 4-5 hours). […] All of Example 9, MMAE and gemcitabine were dissolved in physiological saline at 2 mL per kg of body weight and administered into the jugular vein at doses of 40 mg/kg, 4 mg/kg and 2 mg/kg, respectively. […]
Molecule,IVIS whole body image: change in luminescence [1],dead mice [1],pIC50 [2],"effect of inhibiting tumor (IVIS images, tumor size and weight) [1]",AUC of MMAE up to 120 minutes higher than Example 9 (IO176) 40 mg/kg group [3],plasma concentration of MMAE at 1 minute after administration [3] [ng/mL],AUCt of MMAE ([3]; to final quantification time) [µg·min/mL],AUC0-120 of MMAE ([3]; up to 120 minutes) [µg·min/mL],death of tested rats [4]
"IO101L: SEQ ID NO: 16, 5′-(Gem)(Gem)[TGG]4[TTG][TGG]5-3′, Gem=Gemcitabine (DNA NNTGGTGGTGGTGGTTGTGGTGGTGGTGGTGG; two 5' gemcitabine nucleotides; modified_base 1 OTHER; gemcitabine; modified_base 2 OTHER)",luminescence was gradually increased over time,there were dead mice,,,,,,,
Example 5 (GGTGGTGGTGGNNGNGGTGGTGGTGG; paclitaxel via acrylamide-C6-NH-succinic acid linker on U; modified_base 13 OTHER; deoxyuridine(dU); modified_base 12 OTHER; gemcitabine; modified_base 15 OTHER),changes in the fluorescence were decreased,no dead mouse was observed,7.00,excellent effect of inhibiting tumor appeared,,,,,
"CC[C@H](C)[C@@H]([C@@H](CC(=O)N1CCC[C@H]1[C@H](OC)[C@@H](C)C(=O)N[C@H](C)[C@@H](O)c1ccccc1)OC)N(C)C(=O)[C@@H](NC(=O)[C@@H](NC)C(C)C)C(C)C [MMAE, Monomethyl auristatin E] (H-[NMeV]V[Dil][Dolaproine]-X1)",,,,,about 9.70 times,29640 ± 7190,128 ± 16.1,71.7 ± 9.61,all tested 7 rats were died
